Measurements from patent US6905716B2, “Propionic acid based preservative agent for animal and vegetable products” (TINE Norske Meierier BA, priority 2000, dated 2005).

What was measured:
[1] = system: undesirable microorganisms; settings: typically 0.1-0.5 g/l; potassium sorbate and/or sodium benzoate
grass = assay: Ensilage of grass in preserving jars, Example 4; settings: laboratory silos
Protocol: The jars were stored in a climatic test chamber at 20° C. For the control without ensiling agent, water was added in a volume equivalent to 15 weight % FLP with and without bacteria. The additive of 40% weight FLP was added in an amount corresponding to 6 liters/tonne of grass. The FLP consisted of ¾ lactose and salts and ¼ organic acids (the ratio of propionic acid to lactic acid was 1:3). The agent with bacteria contained 8 log10 colony forming units of lactic acid bacteria per ml FLP and <8 log10 cfu propionic acid bacteria per ml FLP.

Row | Structure (SMILES) | risk of contamination by undesirable microorganisms during fermentation [1] | silage effluent, formic acid compared with addition of FLP (grass)
1 | C/C=C/C=C/C(=O)[O-].[K+] [potassium sorbate] | reduced the risk of contamination | –
2 | O=C([O-])c1ccccc1.[Na+] [sodium benzoate] | reduced the risk of contamination | –
3 | O=CO [formic acid] | – | More silage effluent
